In the experiment the test system is REH cells. As to the kind of experiment: Chemotaxis. Type of experiment: cell-based. The note with it: 3 h migration.

For SDF-1α, the “Lowest concentration inducing migration” value came to 10 pM. Moreover, for the setting “bell-shaped dose-response”, the “Concentration at peak of induced migration (chemotaxis peak)” value amounted to 1 nM.
